The results in this text go back to ChEMBL document CHEMBL3217409 (Medchemcomm, 2011).

Calls of active or inactive are those of the source. The rule behind the calls is not given here.

One assay is filed under the species Homo sapiens. The experiment in a line: Selectivity ratio of Ki for human MT1 receptor to Ki for human MT2 receptor.
The target of assay [1] is T1, Melatonin receptor type 1B (Homo sapiens, UniProt P49286).
T1 sequence (P49286 whole entry): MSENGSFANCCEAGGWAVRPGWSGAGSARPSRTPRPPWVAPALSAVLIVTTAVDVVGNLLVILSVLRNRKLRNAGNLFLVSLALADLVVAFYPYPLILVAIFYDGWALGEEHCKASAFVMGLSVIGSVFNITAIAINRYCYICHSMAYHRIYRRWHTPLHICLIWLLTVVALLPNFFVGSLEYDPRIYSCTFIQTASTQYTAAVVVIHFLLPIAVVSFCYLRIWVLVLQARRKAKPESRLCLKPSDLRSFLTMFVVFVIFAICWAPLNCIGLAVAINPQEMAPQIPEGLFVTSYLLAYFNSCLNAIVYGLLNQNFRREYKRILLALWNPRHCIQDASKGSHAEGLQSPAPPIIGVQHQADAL
Briefly: Displacement of 2-[125I]-iodomelatonin from human MT2 receptor expressed in CHO cells. In kind it is cell-based.

The target of assay [2] is T2, Melatonin receptor type 1A (Homo sapiens, UniProt P48039). The experiment in a line: Intrinsic activity at human MT1 receptor expressed in CHO cells. In kind it is cell-based.
For assay [3], the target named is T3, Melatonin receptor type 1B (Homo sapiens) (UniProt P49286).
T3 sequence (whole entry): T1 sequence (P49286 whole entry)
The experiment in a line: Intrinsic activity at human MT2 receptor expressed in CHO cells. In kind it is cell-based.

Assay [4] concerns the target T2, Melatonin receptor type 1A. The experiment in a line: Antagonist activity at human MT1 receptor expressed in CHO cells assessed as inhibition of melatonin-induced activity at 10 to 100 nM. In kind it is cell-based.
In assay [5] the target is T2, Melatonin receptor type 1A. Briefly: Displacement of 2-[125I]-iodomelatonin from human MT1 receptor expressed in CHO cells. It counts as cell-based.
Assay [6] deals with T3, Melatonin receptor type 1B (Homo sapiens). Briefly: Antagonist activity at human MT2 receptor expressed in CHO cells assessed as inhibition of melatonin-induced activity at 10 to 100 nM. It counts as cell-based.

T2 sequence (P48039 whole entry): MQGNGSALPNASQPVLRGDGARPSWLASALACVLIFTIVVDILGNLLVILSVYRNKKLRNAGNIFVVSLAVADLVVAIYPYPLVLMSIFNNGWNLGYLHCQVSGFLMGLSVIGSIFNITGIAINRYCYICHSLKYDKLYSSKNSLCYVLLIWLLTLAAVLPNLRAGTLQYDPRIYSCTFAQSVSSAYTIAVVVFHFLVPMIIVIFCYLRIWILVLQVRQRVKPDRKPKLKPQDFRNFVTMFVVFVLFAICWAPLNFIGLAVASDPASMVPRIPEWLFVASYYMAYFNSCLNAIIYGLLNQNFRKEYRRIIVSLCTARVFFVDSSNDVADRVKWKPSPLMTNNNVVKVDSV

Consider `COc1ccc2[nH]c(CN3CCc4ccccc43)c(CCNC(C)=O)c2c1`, for which the Ratio Ki in the assay filed under Homo sapiens came out at 95.

In the case of `COc1ccc2[nH]c(CN3Cc4ccccc4C3)c(CCNC(C)=O)c2c1`, the Ki (in general, the equilibrium dissociation constant of an inhibitor or competing ligand from its target) in assay [1] was 2.24 nM; in assay [5], 282 nM. In addition, the result in assay [2] and in assay [3] was inactive. The Ratio Ki in the assay filed under Homo sapiens was determined as 124. Also, the inhibition entry in assay [4] and in assay [6] was “Active” throughout.

With `COc1ccc2[nH]c(CN3Cc4ccccc4C3)c(CCNC(=O)C3CC3)c2c1`, the figures for the Ki in assay [1] and in assay [5] were 33.9 nM and 61.7 nM, respectively.

For the compound `COc1ccc2[nH]c(CN3Cc4ccccc4C3)c(CCNC(=O)C3CCC3)c2c1`, the Ki is 200 nM in assay [1] and 112 nM in assay [5].

In the case of `C=CCC(=O)NCCc1c(CN2Cc3ccccc3C2)[nH]c2ccc(OC)cc12`, the Ki is 9.33 nM in assay [1] and 24 nM in assay [5].

`COc1ccc2[nH]c(CN3CCc4ccccc4C3)c(CCNC(C)=O)c2c1`: the Ki is 21.4 nM in assay [1] and 251 nM in assay [5].

`CCC(=O)NCCCc1cc(OC)ccc1OCc1cccc(OC)c1`: the Ki in assay [1] is 1.7 nM; in assay [5], 1350 nM. Besides, in the assay filed under Homo sapiens, the Ratio Ki is 790.

Consider `COc1ccc2[nH]c(Cn3ccc4ccccc43)c(CCNC(C)=O)c2c1`, for which the inhibitory constant (Ki) is 5.75 nM in assay [1] and 182 nM in assay [5].

With `COc1ccc2[nH]c(Cn3ccc4ccccc43)c(CCNC(=O)C3CCC3)c2c1`, the Ki in assay [1] was 81.3 nM; in assay [5], 57.5 nM.

As for `CCC(=O)NCCc1c(CN2Cc3ccccc3C2)[nH]c2ccc(OC)cc12`, the Ki is 3.72 nM in assay [1] and 5.62 nM in assay [5].
